# From PubChem BioAssay AID1918949 (Molecular Pharmacology Branch, DTP, NCI, 2023)
# Test system: K24384-001-R-PDC complex spheroid viability
# Assay: Anticancer human tumor K24384-001-R-PDC patient-derived pancreatic adenocarcinoma cell line growth inhibition
# Settings: for IC50: curve of first compound; for viability, T/C: stronger effect = lower value
# Method in brief: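 Drug combinations with the LSD1 inhibitor iadademstat tested on tumor cells co-cultured as spheroids with endothelial cells and mesenchymal stem cells. Concentrations descended in half-log increments from clinical Cmax or 10 microM.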
# [1] = second compound 0.1 µM, first compound 0.0316 µM
# [2] = second compound 0.1 µM, first compound 0.1 µM
# [3] = second compound 0.1 µM, first compound 0.316 µM
# [4] = second compound 0.1 µM, first compound 1 µM
# [5] = second compound 0.1 µM, first compound 3.16 µM
# [6] = second compound 0.1 µM, first compound 10 µM
# [7] = second compound 0.316 µM, first compound 0.0316 µM
# [8] = second compound 0.316 µM, first compound 0.1 µM
# [9] = second compound 0.316 µM, first compound 0.316 µM
# [10] = second compound 0.316 µM, first compound 1 µM
# [11] = second compound 0.316 µM, first compound 3.16 µM
# [12] = second compound 0.316 µM, first compound 10 µM
# [13] = second compound 1 µM, first compound 0.0316 µM
# [14] = second compound 1 µM, first compound 0.1 µM
# [15] = second compound 1 µM, first compound 0.316 µM
# [16] = second compound 1 µM, first compound 1 µM
# [17] = second compound 1 µM, first compound 3.16 µM
# [18] = second compound 1 µM, first compound 10 µM
# [19] = second compound 3.16 µM, first compound 0.0316 µM
# [20] = second compound 3.16 µM, first compound 0.1 µM
# [21] = second compound 3.16 µM, first compound 0.316 µM
# [22] = second compound 3.16 µM, first compound 1 µM
# [23] = second compound 3.16 µM, first compound 3.16 µM
# [24] = second compound 3.16 µM, first compound 10 µM
# [25] = second compound 10 µM, first compound 0.0316 µM
# [26] = second compound 10 µM, first compound 0.1 µM
# [27] = second compound 10 µM, first compound 0.316 µM
# [28] = second compound 10 µM, first compound 1 µM
# [29] = second compound 10 µM, first compound 3.16 µM
# [30] = second compound 10 µM, first compound 10 µM
# 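Also: spheroids exposed to agents for seven days before luminescence viability reading.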
# 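For viability, T/C in this document: 100% = DMSO vehicle control viability.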
Compound,IC50 (second compound 0.1 µM) [µM],IC50 (second compound 0.316 µM) [µM],IC50 (second compound 1 µM) [µM],IC50 (second compound 3.16 µM) [µM],IC50 (second compound 10 µM) [µM],"viability, T/C [1] [%]","viability, T/C [2] [%]","viability, T/C [3] [%]","viability, T/C [4] [%]","viability, T/C [5] [%]","viability, T/C [6] [%]","viability, T/C [7] [%]","viability, T/C [8] [%]","viability, T/C [9] [%]","viability, T/C [13] [%]","viability, T/C [14] [%]","viability, T/C [19] [%]","viability, T/C [20] [%]","viability, T/C [25] [%]","viability, T/C [26] [%]",also measured
CC1(C)CCC(CN2CCN(c3ccc(C(=O)NS(=O)(=O)c4ccc(NCC5CCOCC5)c([N+](=O)[O-])c4)c(Oc4cnc5[nH]ccc5c4)c3)CC2)=C(c2ccc(Cl)cc2)C1 + NC1CCC(NC2CC2c2ccccc2)CC1,3.08,2.74,2.28,3.11,3.73,80.2,95.5,85,89.8,49.1,0.77,79.5,90.2,88.9,84,86,87.3,72.9,73.9,92.9,"viability, T/C [10]: 94.5%; viability, T/C [11]: 44.6%; viability, T/C [12]: 0.44%; viability, T/C [15]: 81.6%; viability, T/C [16]: 81.6%; viability, T/C [17]: 37.6%; viability, T/C [18]: 0.69%; viability, T/C [21]: 77.3%; viability, T/C [22]: 92.2%; viability, T/C [23]: 49.6%; viability, T/C [24]: 0.87%; viability, T/C [27]: 77.8%; viability, T/C [28]: 76.9%; viability, T/C [29]: 58.4%; viability, T/C [30]: 0.69%"
COc1ccc([C@@H](O)c2cc(-c3ncnc4cc(N5CCOCC5)ccc34)c(F)cc2Cl)nn1 + NC1CCC(NC2CC2c2ccccc2)CC1,1.04,1.18,1.12,1.18,0.516,94.5,114,89.8,49,30.2,14.2,112,87.4,69.6,79.7,98.3,77.7,102,71.3,74.8,"viability, T/C [10]: 59.8%; viability, T/C [11]: 30.8%; viability, T/C [12]: 13.9%; viability, T/C [15]: 79.2%; viability, T/C [16]: 50.4%; viability, T/C [17]: 28.4%; viability, T/C [18]: 13.4%; viability, T/C [21]: 77.9%; viability, T/C [22]: 55%; viability, T/C [23]: 23.9%; viability, T/C [24]: 14.7%; viability, T/C [27]: 56.7%; viability, T/C [28]: 37.7%; viability, T/C [29]: 22.9%; viability, T/C [30]: 12.1%"
CC[C@@]1(O)C(=O)OCc2c1cc1n(c2=O)Cc2cc3c(CN(C)C)c(O)ccc3nc2-1 + NC1CCC(NC2CC2c2ccccc2)CC1,0.0899,> 0.1,0.0886,0.0845,> 0.1,61.2,48.1,–,–,–,–,70.2,49.6,–,54.6,49,64.5,47,53.9,49.8,"viability, T/C (second compound 0.1 µM, first compound 0.000316 µM): 93.1%; viability, T/C (second compound 0.1 µM, first compound 0.001 µM): 87.2%; viability, T/C (second compound 0.1 µM, first compound 0.00316 µM): 77.6%; viability, T/C (second compound 0.1 µM, first compound 0.01 µM): 68.9%; viability, T/C (second compound 0.316 µM, first compound 0.000316 µM): 99.3%; viability, T/C (second compound 0.316 µM, first compound 0.001 µM): 81.2%; viability, T/C (second compound 0.316 µM, first compound 0.00316 µM): 82.3%; viability, T/C (second compound 0.316 µM, first compound 0.01 µM): 84%; viability, T/C (second compound 1 µM, first compound 0.000316 µM): 89.5%; viability, T/C (second compound 1 µM, first compound 0.001 µM): 82.7%; viability, T/C (second compound 1 µM, first compound 0.00316 µM): 75.5%; viability, T/C (second compound 1 µM, first compound 0.01 µM): 59%; viability, T/C (second compound 3.16 µM, first compound 0.000316 µM): 93.7%; viability, T/C (second compound 3.16 µM, first compound 0.001 µM): 91.8%; viability, T/C (second compound 3.16 µM, first compound 0.00316 µM): 81%; viability, T/C (second compound 3.16 µM, first compound 0.01 µM): 77%; viability, T/C (second compound 10 µM, first compound 0.000316 µM): 101%; viability, T/C (second compound 10 µM, first compound 0.001 µM): 88.2%; viability, T/C (second compound 10 µM, first compound 0.00316 µM): 88.7%; viability, T/C (second compound 10 µM, first compound 0.01 µM): 61.7%"
